Reference: ChEMBL document CHEMBL4715849, “Recent Progress in the Discovery of Antifungal Agents Targeting the Cell Wall” (J Med Chem, 2020)
Converted amounts (≈) assume the structure as drawn. Each block holds one compound with its values, some of them ahead of it.

Experiments:
[1] = system: Candida albicans; assay: Antifungal activity against Candida albicans ATCC 32354 incubated for 24 hrs by broth microdilution method; format: functional
[2] = system: Candida tropicalis; assay: Antifungal activity against Candida tropicalis 85-5 incubated for 24 hrs by broth microdilution method; format: functional
[3] = system: Candida tropicalis; assay: Antifungal activity against Candida tropicalis IFO10241 incubated for 24 hrs by broth microdilution method; format: functional
[4] = system: Candida albicans; assay: Antifungal activity against Candida albicans 83-2-14 incubated for 24 hrs by broth microdilution method; format: functional
[5] = system: Candida albicans; assay: Antifungal activity against Candida albicans A9540 incubated for 24 hrs by broth microdilution method; format: functional
[6] = system: Candida albicans; assay: Antifungal activity against Candida albicans IAM 888 incubated for 24 hrs by broth microdilution method; format: functional
[7] = system: Blastomyces dermatitidis; assay: Antifungal activity against Blastomyces dermatitidis IFO8144 incubated for 40 hrs by serial agar dilution method; format: functional
[8] = system: Candida albicans; assay: Antifungal activity against Candida albicans IAM 888 incubated for 40 hrs by serial agar dilution method; format: functional
[9] = system: Trichophyton mentagrophytes; assay: Antifungal activity against Trichophyton mentagrophytes N0.4329 incubated for 40 hrs by serial agar dilution method; format: functional
[10] = system: Candida albicans; assay: Antifungal activity against Candida albicans A9540 incubated for 40 hrs by serial agar dilution method; format: functional
[11] = system: Aspergillus fumigatus; assay: Antifungal activity against Aspergillus fumigatus IAM2034 incubated for 40 hrs by serial agar dilution method; format: functional
[12] = system: Sporothrix schenckii; assay: Antifungal activity against Sporothrix schenckii IFO8158 incubated for 40 hrs by serial agar dilution method; format: functional
[13] = system: Aspergillus flavus; assay: Antifungal activity against Aspergillus flavus FA21436 NRRL 484 incubated for 40 hrs by serial agar dilution method; format: functional
[14] = system: Cryptococcus neoformans; assay: Antifungal activity against Cryptococcus neoformans IAM4514 incubated for 40 hrs by serial agar dilution method; format: functional
[15] = system: Scedosporium boydii; assay: Antifungal activity against Petriellidium boydii IFO8078 incubated for 40 hrs by serial agar dilution method; format: functional
[16] = system: Candida albicans; assay: Antifungal activity against Candida albicans A9540 infected in iv dosed ICR mouse assessed as protection against fungus-induced lethal infection dosed once immediately following fungal challenge and measured on day 20 post infection; format: functional; conditions: 480 h, time 20 day, read-out: PD50
[17] = system: Trichophyton mentagrophytes; assay: Antifungal activity against Trichophyton mentagrophytes D155 incubated for 40 hrs by serial agar dilution method; format: functional
[18] = system: Cryptococcus neoformans; assay: Antifungal activity against Cryptococcus neoformans D49 incubated for 40 hrs by serial agar dilution method; format: functional
[19] = system: Fusarium verticillioides; assay: Antifungal activity against Fusarium monoliforme A2284 incubated for 40 hrs by serial agar dilution method; format: functional
[20] = system: Aspergillus fumigatus; assay: Antifungal activity against Aspergillus fumigatus IAM2530 incubated for 40 hrs by serial agar dilution method; format: functional
[21] = system: Cryptococcus neoformans; assay: Antifungal activity against Cryptococcus neoformans ATCC 32719 incubated for 24 hrs; format: functional
[22] = system: Aspergillus fumigatus; assay: Antifungal activity against Aspergillus fumigatus GIMCC 3.19 incubated for 24 hrs; format: functional
[23] = system: Aspergillus flavus; assay: Antifungal activity against Aspergillus flavus ATCC 16870 incubated for 24 hrs; format: functional
[24] = system: Candida albicans; assay: Antifungal activity against Candida albicans CMCC 76615 incubated for 24 hrs; format: functional
[25] = system: Mucor mucedo; assay: Antifungal activity against Mucor mucedo IF07684 by serial broth dilution method; format: functional
[26] = system: Mucor mucedo; assay: Antifungal activity against Mucor mucedo IF05776 by serial broth dilution method; format: functional
[27] = system: Mucor racemosus; assay: Antifungal activity against Mucor racemosus IF09255 by serial broth dilution method; format: functional
[28] = Antifungal activity against Mucor flavus IFO9560 by serial broth dilution method; format: functional
[29] = system: Mucor javanicus; assay: Antifungal activity against Mucor javanicus IFO4569 by serial broth dilution method; format: functional
[30] = system: Mucor mucedo; assay: Antifungal activity against Mucor mucedo IF06750 by serial broth dilution method; format: functional
[31] = system: Mucor hiemalis; assay: Antifungal activity against Mucor hiemalis IFO9400 by serial broth dilution method; format: functional
[32] = Inhibition of Mucor flavus IFO9560 chitin synthase incubated for 6 to 20 hrs by Lineweaver-Burk analysis
[33] = Antifungal activity against Mucor piriformis IF09416 by serial broth dilution method; format: functional
[34] = Inhibition of Candida albicans AMB-25 glucosamine-6-phosphate synthase using glutamine as substrate incubated for 30 mins
[35] = system: Candida albicans; assay: Antifungal activity against Candida albicans AMB-25 incubated for 48 hrs by serial two-fold dilution method; format: functional
[36] = Competitive inhibition of Candida albicans AMB-25 glucosamine synthetase using glutamine as substrate incubated for 30 mins by Lineweaver-Burk plot based Dixon plot analysis
[37] = system: Aspergillus fumigatus; assay: Antifungal activity against Aspergillus fumigatus IAM2034 infected in iv dosed ICR mouse assessed as protection against fungus-induced lethal infection dosed thrice at 48 hrs interval immediately following fungal challenge and measured on day 20 post infection by Litchfield -Wilcoxon method; format: functional; conditions: 480 h, time 20 day, read-out: PD50
[38] = Solubility in water at pH 7.2; format: physicochemical
[39] = system: Candida albicans; assay: Antifungal activity against Candida albicans infected in mouse assessed as protection against fungus-induced lethal infection; format: functional; conditions: read-out: PD50
[40] = system: Candida albicans; assay: Antifungal activity against Candida albicans A9540 infected in iv dosed ICR mouse assessed as protection against fungus-induced lethal infection dosed thrice at 48 hrs interval immediately following fungal challenge and measured on day 20 post infection by Litchfield -Wilcoxon method; format: functional; conditions: 480 h, time 20 day, read-out: PD50
[41] = molecular target: Chitin synthase 1 (Candida albicans, UniProt P23316); assay: Inhibition of Candida albicans chitin synthase 1 expressed in Saccharomyces cerevisiae RRA400-1U cells using [3H]UDP-GlcNAc as substrate by scintillation counting method
Chitin synthase 1, sequence (P23316 whole entry): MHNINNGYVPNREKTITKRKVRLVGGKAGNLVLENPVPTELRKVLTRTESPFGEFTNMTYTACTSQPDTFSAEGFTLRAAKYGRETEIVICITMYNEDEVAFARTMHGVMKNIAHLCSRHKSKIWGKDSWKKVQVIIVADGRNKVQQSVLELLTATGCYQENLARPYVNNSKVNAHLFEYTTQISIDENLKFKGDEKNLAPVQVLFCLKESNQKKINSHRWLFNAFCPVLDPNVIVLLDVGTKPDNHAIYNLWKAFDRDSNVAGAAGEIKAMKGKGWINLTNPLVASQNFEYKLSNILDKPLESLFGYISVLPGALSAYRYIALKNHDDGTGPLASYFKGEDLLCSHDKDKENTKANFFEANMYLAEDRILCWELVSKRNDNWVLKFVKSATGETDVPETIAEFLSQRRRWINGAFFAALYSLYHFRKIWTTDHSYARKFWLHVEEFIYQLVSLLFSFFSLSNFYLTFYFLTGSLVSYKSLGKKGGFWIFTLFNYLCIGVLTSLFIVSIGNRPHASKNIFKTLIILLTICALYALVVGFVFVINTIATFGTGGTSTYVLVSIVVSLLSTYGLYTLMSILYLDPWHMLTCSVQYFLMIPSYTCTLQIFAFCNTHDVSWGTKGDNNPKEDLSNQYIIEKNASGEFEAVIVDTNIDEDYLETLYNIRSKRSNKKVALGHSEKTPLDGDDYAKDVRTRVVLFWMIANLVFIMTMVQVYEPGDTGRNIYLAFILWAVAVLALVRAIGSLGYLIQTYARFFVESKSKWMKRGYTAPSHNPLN

[42] = system: Candida albicans; assay: Antifungal activity against Candida albicans CAI4 incubated for 24 hrs; format: functional
[43] = system: Aspergillus fumigatus; assay: Antifungal activity against Aspergillus fumigatus(Tsukuba); format: functional
[44] = Inhibition of Candida albicans GWT1 expressed in Saccharomyces cerevisiae using UDP-GlcNAc as substrate incubated for 20 mins followed by palmitoyl-CoA addition and measured after 2 hrs by TLC-based autography
[45] = Inhibition of Aspergillus fumigatus GWT1 expressed in Saccharomyces cerevisiae using UDP-GlcNAc as substrate incubated for 20 mins followed by palmitoyl-CoA addition and measured after 2 hrs by TLC-based autography
[46] = system: Candida albicans; assay: Antifungal activity against Candida albicans CAF2-1; format: functional

Structure (SMILES): CN[C@@H]1[C@H](O[C@@H]2OC[C@@H](O)[C@H](O)[C@H]2O)[C@@H](O)[C@H](O[C@H]2c3cc(C)c(C(=O)N[C@H](CO)C(=O)O)c(O)c3-c3c(cc4c(c3O)C(=O)c3cc(OC)cc(O)c3C4=O)[C@@H]2O)O[C@@H]1C
MIC [7]: 0.8 µg/mL (≈ 0.934 µM) | MIC [8]: 0.8 µg/mL (≈ 0.934 µM) | MIC [9]: 0.8 µg/mL (≈ 0.934 µM) | MIC [10]: 0.8 µg/mL (≈ 0.934 µM) | MIC [11]: 0.8 µg/mL (≈ 0.934 µM) | MIC [12]: 0.8 µg/mL (≈ 0.934 µM) | MIC [13]: 0.8 µg/mL (≈ 0.934 µM) | MIC [14]: 0.8 µg/mL (≈ 0.934 µM) | MIC [15]: 0.8 µg/mL (≈ 0.934 µM) | ED50 [16]: 7.4 mg/kg | MIC [17]: 0.8 µg/mL (≈ 0.934 µM) | MIC [18]: 0.8 µg/mL (≈ 0.934 µM) | MIC [19]: 0.8 µg/mL (≈ 0.934 µM) | MIC [20]: 0.8 µg/mL (≈ 0.934 µM)

Structure (SMILES): C[C@@H]1C[C@H]2O[C@@H]2/C=C\C=C\C(=O)Cc2c(Cl)c(O)cc(O)c2C(=O)O1 [RADICICOL]
MIC [25]: 0.39 µg/mL (≈ 1.07 µM) | MIC [26]: 0.39 µg/mL (≈ 1.07 µM) | MIC [27]: 0.39 µg/mL (≈ 1.07 µM) | MIC [28]: 0.39 µg/mL (≈ 1.07 µM) | MIC [29]: 0.39 µg/mL (≈ 1.07 µM) | MIC [30]: 0.39 µg/mL (≈ 1.07 µM) | MIC [31]: 0.39 µg/mL (≈ 1.07 µM) | Ki [32]: 87000 nM | MIC [33]: 0.39 µg/mL (≈ 1.07 µM)

Structure (SMILES): COc1cc(O)c2c(c1)C(=O)c1c(cc3c(c1O)-c1c(cc(C)c(C(=O)N[C@H](CO)C(=O)O)c1O)[C@H](O[C@@H]1O[C@H](C)[C@H](N(C)C)[C@H](O[C@@H]4OC[C@@H](O)[C@H](O)[C@H]4O)[C@H]1O)[C@H]3O)C2=O
ED50 [37]: 23 mg/kg | solubility [38]: > 20 mg/mL | ED50 [39]: 50 mg/kg | ED50 [40]: 15 mg/kg

Further lines, with some results ahead:

MIC [1]: 0.1 µg/mL (≈ 0.117 µM) | MIC [2]: 0.1 µg/mL (≈ 0.117 µM) | MIC [3]: 0.1 µg/mL (≈ 0.117 µM) | MIC [4]: 0.1 µg/mL (≈ 0.117 µM) | MIC [5]: 0.1 µg/mL (≈ 0.117 µM) | MIC [6]: 0.1 µg/mL (≈ 0.117 µM)
Structure (SMILES): CCC/C=C/C=C/C=C/C(=O)OC[C@H]1O[C@@H](O[C@H]2[C@H](OC(=O)/C=C/C=C/C[C@H](O)/C=C/C=C/C=C/CCC)[C@@H](O)[C@@]3(OCc4cc(O)cc(O)c43)O[C@@H]2CO)[C@H](O)[C@@H](O)[C@H]1O

MIC [21]: 4 µg/mL (≈ 8.2 µM) | MIC [22]: 4 µg/mL (≈ 8.2 µM) | MIC [23]: 4 µg/mL (≈ 8.2 µM) | MIC [24]: 4 µg/mL (≈ 8.2 µM)
Structure (SMILES): O=C(Nc1c(O)c2ccccc2oc1=O)[C@H](O)[C@@H](O)C(=O)N1CCN(c2ccc(Cl)cc2)CC1

IC50 [34]: 4.03 µg/mL (≈ 18.6 µM) | MIC [35]: > 200 µg/mL
Structure (SMILES): COC(=O)/C=C/C(=O)NC[C@H](N)C(=O)O
Ki [36]: 100 nM

Ki [41]: 630 nM | MIC50 [42]: 3.3 µM (≈ 0.925 µg/mL)
Structure (SMILES): CC(C)(C)C#CC=CCNc1cccc2[nH]c(=O)ccc12

MIC [43]: 0.2 µg/mL (≈ 0.558 µM) | IC50 [44]: 270 nM | IC50 [45]: 600 nM | MIC [46]: 0.05 µg/mL (≈ 0.14 µM)
Structure (SMILES): Nc1ncccc1-c1cc(Cc2ccc(COc3ccccn3)cc2)no1 [MANOGEPIX]
